Results as given in patent US20060046968A1, “Prodrug substituted benzoxazoles as estrogenic agents” (priority 2004, published 2006).

Experiments:
Assay type in all cases: in vivo
[1] = system: Sexually immature Sprague-Dawley rats; assay: Rat uterotrophic test procedure (Procedure 1); conditions: compound 2 mg/rat + 17α-ethinyl, 17β-estradiol 0.06 μg/rat s.c. (antagonist mode)
[2] = system: Sexually immature 129 SvE mice; assay: Mouse uterotrophic test procedure (Procedure 2); conditions: compound 50 mg/kg s.c., days 22-25
[3] = system: ovariectomized Sprague-Dawley rats; assay: Bone mineral density in the ovariectomized rat (pQCT, proximal tibia); conditions: compound 10 mg/kg s.c.; 5 weeks
[4] = system: Male HLA-B27 rats; assay: HLA rat test for inflammatory bowel disease: stool character (3 = diarrhea; 2 = soft stool; 1 = normal stool)

`C=Cc1cc(O)cc2nc(-c3ccc(O)c(F)c3)oc12` [Example 24, 2-(3-FLUORO-4-HYDROXYPH ENYL)-7-VI NYL-1,3-BENZOXAZOL-5-OL] was tested, and the “mean uterine weight ± SEM” value [1] was 80.7 ± 5.3 mg, the “mean uterine weight ± SEM” value [2] was 10.7 ± 0.9 mg and the “Total Bone Mineral Density (mean ± SEM)” value [3] was 517.56 ± 9.67 mg/mL. For the same molecule, the “Trabecular Bone Mineral Density (mean ± SEM)” value [3] was 321.16 ± 9.04 mg/mL, the “Stool quality” value ([4]; Study A, 50 mg/kg s.c.) was “Stool quality was improved” and the “Stool Character (group's average score)” value ([4]; Study A, 50 mg/kg s.c. once per day, Day 1) was 2.8. For the same molecule, the “Stool Character (group's average score)” value ([4]; Study A, 50 mg/kg s.c. once per day, Day 2) was 2, the “Stool Character (group's average score)” value ([4]; Study A, 50 mg/kg s.c. once per day, Day 3) was 1.8 and the “Stool Character (group's average score)” value ([4]; Study A, 50 mg/kg s.c. once per day, Day 4) was 1.6. The “Stool Character (group's average score)” value ([4]; Study A, 50 mg/kg s.c. once per day, Day 5) was 1.6, the “Stool Character (group's average score)” value ([4]; Study A, 50 mg/kg s.c. once per day, Day 6) was 1.4 and the “Stool Character (group's average score)” value ([4]; Study C, oral 10 mg/kg once per day, Day 1) was 2.75. For the same molecule, the “Stool Character (group's average score)” value ([4]; Study C, oral 10 mg/kg once per day, Day 2) was 2.75, the “Stool Character (group's average score)” value ([4]; Study C, oral 10 mg/kg once per day, Day 3) was 2.75 and the “Stool Character (group's average score)” value ([4]; Study C, oral 10 mg/kg once per day, Day 4) was 2.5. The “Stool Character (group's average score)” value ([4]; Study C, oral 10 mg/kg once per day, Day 5) was 2, the “Stool Character (group's average score)” value ([4]; Study C, oral 10 mg/kg once per day, Day 6) was 2.5 and the “Stool Character (group's average score)” value ([4]; Study C, oral 10 mg/kg once per day, Day 7) was 2.25. For the same molecule, the “Stool Character (group's average score)” value ([4]; Study C, oral 10 mg/kg once per day, Day 8) was 2.25, the “Stool Character (group's average score)” value ([4]; Study C, oral 10 mg/kg once per day, Day 9) was 2.25 and the “Stool Character (group's average score)” value ([4]; Study C, oral 10 mg/kg once per day, Day 10) was 2.25. For the same molecule, the “Stool Character (group's average score)” value ([4]; Study C, oral 10 mg/kg once per day, Day 11) was 2.25, the “Stool Character (group's average score)” value ([4]; Study C, oral 10 mg/kg once per day, Day 12) was 1.75 and the “Stool Character (group's average score)” value ([4]; Study C, oral 10 mg/kg once per day, Day 13) was 2.25. For the same molecule, the “Stool Character (group's average score)” value ([4]; Study C, oral 10 mg/kg once per day, Day 14) was 2, the “Stool Character (group's average score)” value ([4]; Study C, oral 10 mg/kg once per day, Day 15) was 1.75 and the “Stool Character (group's average score)” value ([4]; Study C, oral 10 mg/kg once per day, Day 16) was 1.75. The “Stool Character (group's average score)” value ([4]; Study C, oral 10 mg/kg once per day, Day 17) was 1.75, the “Stool Character (group's average score)” value ([4]; Study C, oral 10 mg/kg once per day, Day 18) was 1.75 and the “Stool Character (group's average score)” value ([4]; Study C, oral 10 mg/kg once per day, Day 19) was 1.75. For the same molecule, the “Stool Character (group's average score)” value ([4]; Study C, oral 10 mg/kg once per day, Day 20) was 1.75, the “Stool Character (group's average score)” value ([4]; Study C, oral 10 mg/kg once per day, Day 21) was 1.75 and the “Stool Character (group's average score)” value ([4]; Study C, oral 10 mg/kg once per day, Day 22) was 1.75. For the same molecule, the “Stool Character (group's average score)” value ([4]; Study C, oral 10 mg/kg once per day, Day 23) was 1.75, the “Stool Character (group's average score)” value ([4]; Study C, oral 10 mg/kg once per day, Day 24) was 2 and the “Stool Character (group's average score)” value ([4]; Study C, oral 20 mg/kg once per day (10 mg/kg earlier), Day 25) was 2. The “Stool Character (group's average score)” value ([4]; Study C, oral 20 mg/kg once per day (10 mg/kg earlier), Day 26) was 2.25, the “Stool Character (group's average score)” value ([4]; Study C, oral 20 mg/kg once per day (10 mg/kg earlier), Day 27) was 1.75 and the “Stool Character (group's average score)” value ([4]; Study C, oral 20 mg/kg once per day (10 mg/kg earlier), Day 28) was 1.75. For the same molecule, the “Stool Character (group's average score)” value ([4]; Study C, oral 20 mg/kg once per day (10 mg/kg earlier), Day 29) was 1.5, the “Stool Character (group's average score)” value ([4]; Study C, oral 20 mg/kg once per day (10 mg/kg earlier), Day 30) was 1.5 and the “Stool Character (group's average score)” value ([4]; Study C, oral 20 mg/kg once per day (10 mg/kg earlier), Day 31) was 1.5. The “Stool Character (group's average score)” value ([4]; Study C, oral 20 mg/kg once per day (10 mg/kg earlier), Day 32) was 1.5, the “Stool Character (group's average score)” value ([4]; Study C, oral 20 mg/kg once per day (10 mg/kg earlier), Day 33) was 1.75 and the “Stool Character (group's average score)” value ([4]; Study C, oral 20 mg/kg once per day (10 mg/kg earlier), Day 34) was 1.75. The “Stool Character (group's average score)” value ([4]; Study C, oral 20 mg/kg once per day (10 mg/kg earlier), Day 35) was 1.5, the “Stool Character (group's average score)” value ([4]; Study C, oral 20 mg/kg once per day (10 mg/kg earlier), Day 36) was 1.5 and the “Stool Character (group's average score)” value ([4]; Study C, oral 20 mg/kg once per day (10 mg/kg earlier), Day 37) was 1.25. For the same molecule, the “Stool Character (group's average score)” value ([4]; Study C, oral 20 mg/kg once per day (10 mg/kg earlier), Day 38) was 1.75.
